Results from article PMC8371902, “Phase 1 study of M2698, a p70S6K/AKT dual inhibitor, in patients with advanced cancer” (Journal of Hematology & Oncology, 2021).
Like-named read-outs stand apart in the source and are kept apart here.

System: patients with advanced metastatic cancer
Excerpt: In this phase 1 study, dose escalation was followed by expansion cohorts of once-daily, oral M2698 in continuous 21-day cycles. Primary objectives were to determine the maximum tolerated dose (MTD), dose-limiting toxicities (DLTs), and recommended phase 2 dose (RP2D). Secondary objectives were to assess safety and tolerability, pharmacokinetics (PK, including food effect) and antitumor activity. Pharmacodynamic biomarker assessments were exploratory. Treatment was discontinued if there was disease progression, toxicity or consent withdrawal.
In Part 1, M2698 monotherapy was investigated in a dose escalation with a food effect cohort. In Part 2, M2698 was investigated as monotherapy (expansion cohort) to further characterize safety, tolerability and pharmacokinetics, and assess antitumor activity in PAM + patients without confounding markers (exploratory).
Dose escalation analysis included all patients who experienced a DLT and those who received ≥ 80% of planned M2698 doses in cycle 1 without experiencing a DLT. Safety analysis included all patients who received ≥ 1 dose of M2698. PK analysis included all patients who received ≥ 1 dose of M2698 and had measurable plasma concentrations. Dose proportionality was tested using the power model (linear regression approach on the log -transformed scale).

NC(=O)c1cccc2c(N[C@H](CN3CCC3)c3ccc(Cl)c(C(F)(F)F)c3)ncnc12 [M2698]
M2698-related TEAE: Ataxia (75 mg n=4): 0 | M2698-related TEAE: Blood and lymphatic system disorders (75 mg n=4): 0 | M2698-related TEAE: Blood creatine phosphokinase increased (75 mg n=4): 1 | M2698-related TEAE: Blood creatinine increased (75 mg n=4): 0 | M2698-related TEAE: Cardiac disorders (75 mg n=4): 0 | M2698-related TEAE: Cognitive disorder (75 mg n=4): 0 | M2698-related TEAE: Constipation (75 mg n=4): 0 | M2698-related TEAE: Decreased appetite (75 mg n=4): 0 | M2698-related TEAE: Delusion (75 mg n=4): 0 | M2698-related TEAE: Depression (75 mg n=4): 0 | M2698-related TEAE: Diarrhoea (75 mg n=4): 0 | M2698-related TEAE: Diarrhoea haemorrhagic (75 mg n=4): 0 | M2698-related TEAE: Dizziness (75 mg n=4): 0 | M2698-related TEAE: Dry eye (75 mg n=4): 0 | M2698-related TEAE: Dry mouth (75 mg n=4): 0 | M2698-related TEAE: Dysgeusia (75 mg n=4): 1 | M2698-related TEAE: Dyspepsia (75 mg n=4): 0 | M2698-related TEAE: Dysphagia (75 mg n=4): 0 | M2698-related TEAE: Energy increased (75 mg n=4): 0 | M2698-related TEAE: Erythema (75 mg n=4): 0 | M2698-related TEAE: Euphoric mood (75 mg n=4): 0 | M2698-related TEAE: Eye disorders (75 mg n=4): 0 | M2698-related TEAE: Fatigue (75 mg n=4): 0 | M2698-related TEAE: Gamma-glutamyltransferase increased (75 mg n=4): 0 | M2698-related TEAE: Gastrointestinal disorders (75 mg n=4): 0 | M2698-related TEAE: Gastrooesophageal reflux disease (75 mg n=4): 0 | M2698-related TEAE: General disorders and administration site conditions (75 mg n=4): 0 | M2698-related TEAE: Headache (75 mg n=4): 0 | M2698-related TEAE: Hyperhidrosis (75 mg n=4): 0 | M2698-related TEAE: Hypokalaemia (75 mg n=4): 0 | M2698-related TEAE: Hypomagnesaemia (75 mg n=4): 0 | M2698-related TEAE: Insomnia (75 mg n=4): 0 | M2698-related TEAE: Investigations (75 mg n=4): 1 | M2698-related TEAE: Lipase increased (75 mg n=4): 0 | M2698-related TEAE: Lymphopenia (75 mg n=4): 0 | M2698-related TEAE: Metabolism and nutrition disorders (75 mg n=4): 0 | M2698-related TEAE: Mucosal inflammation (75 mg n=4): 0 | M2698-related TEAE: Nausea (75 mg n=4): 0 | M2698-related TEAE: Nervous system disorders (75 mg n=4): 1 | M2698-related TEAE: Nightmare (75 mg n=4): 1 | M2698-related TEAE: Onychomadesis (75 mg n=4): 0 | M2698-related TEAE: Paranoia (75 mg n=4): 0 | M2698-related TEAE: Photosensitivity reaction (75 mg n=4): 0 | M2698-related TEAE: Posterior reversible encephalopathy syndrome (75 mg n=4): 0 | M2698-related TEAE: Pruritus generalised (75 mg n=4): 0 | M2698-related TEAE: Psychiatric disorders (75 mg n=4): 1 | M2698-related TEAE: Rash (75 mg n=4): 0 | M2698-related TEAE: Rash maculo-papular (75 mg n=4): 1 | M2698-related TEAE: Skin and subcutaneous tissue disorders (75 mg n=4): 1 | M2698-related TEAE: Subjects with at least one event (75 mg n=4): 2 | M2698-related TEAE: Transaminases increased (75 mg n=4): 0 | M2698-related TEAE: Tremor (75 mg n=4): 0 | M2698-related TEAE: Vision blurred (75 mg n=4): 0 | M2698-related TEAE: Vomiting (75 mg n=4): 0 | M2698-related TEAE: White blood cell count decreased (75 mg n=4): 0 | M2698-related TEAE: Abnormal dreams (110 mg n=4): 0 | M2698-related TEAE: Affect lability (110 mg n=4): 0 | M2698-related TEAE: Alanine aminotransferase increased (110 mg n=4): 0 | M2698-related TEAE: Amylase increased (110 mg n=4): 0 | M2698-related TEAE: Anaemia (110 mg n=4): 0 | M2698-related TEAE: Angina pectoris (110 mg n=4): 0 | M2698-related TEAE: Anxiety (110 mg n=4): 0 | M2698-related TEAE: Aphasia (110 mg n=4): 0 | M2698-related TEAE: Ataxia (110 mg n=4): 0 | M2698-related TEAE: Blood and lymphatic system disorders (110 mg n=4): 0 | M2698-related TEAE: Blood creatine phosphokinase increased (110 mg n=4): 0 | M2698-related TEAE: Blood creatinine increased (110 mg n=4): 0 | M2698-related TEAE: Cardiac disorders (110 mg n=4): 0 | M2698-related TEAE: Cognitive disorder (110 mg n=4): 0 | M2698-related TEAE: Constipation (110 mg n=4): 1 | M2698-related TEAE: Decreased appetite (110 mg n=4): 0 | M2698-related TEAE: Delusion (110 mg n=4): 0 | M2698-related TEAE: Depression (110 mg n=4): 0 | M2698-related TEAE: Diarrhoea (110 mg n=4): 0 | M2698-related TEAE: Diarrhoea haemorrhagic (110 mg n=4): 0 | M2698-related TEAE: Dizziness (110 mg n=4): 0 | M2698-related TEAE: Dry eye (110 mg n=4): 0 | M2698-related TEAE: Dry mouth (110 mg n=4): 0 | M2698-related TEAE: Dysgeusia (110 mg n=4): 0 | M2698-related TEAE: Dyspepsia (110 mg n=4): 0 | M2698-related TEAE: Dysphagia (110 mg n=4): 0 | M2698-related TEAE: Energy increased (110 mg n=4): 0 | M2698-related TEAE: Erythema (110 mg n=4): 0 | M2698-related TEAE: Euphoric mood (110 mg n=4): 0 | M2698-related TEAE: Eye disorders (110 mg n=4): 0 | M2698-related TEAE: Fatigue (110 mg n=4): 0 | M2698-related TEAE: Gamma-glutamyltransferase increased (110 mg n=4): 0 | M2698-related TEAE: Gastrointestinal disorders (110 mg n=4): 1 | M2698-related TEAE: Gastrooesophageal reflux disease (110 mg n=4): 0 | M2698-related TEAE: General disorders and administration site conditions (110 mg n=4): 0 | M2698-related TEAE: Headache (110 mg n=4): 0 | M2698-related TEAE: Hyperhidrosis (110 mg n=4): 0 | M2698-related TEAE: Hypokalaemia (110 mg n=4): 0 | M2698-related TEAE: Hypomagnesaemia (110 mg n=4): 0 | M2698-related TEAE: Insomnia (110 mg n=4): 0 | M2698-related TEAE: Investigations (110 mg n=4): 0 | M2698-related TEAE: Lipase increased (110 mg n=4): 0 | M2698-related TEAE: Lymphopenia (110 mg n=4): 0 | M2698-related TEAE: Metabolism and nutrition disorders (110 mg n=4): 0
